# Source: patent US20230174523A1, “BENZENESULFONAMIDE DERIVATIVES AS TRAP1 MODULATORS AND USES THEREOF” (Amathus Therapeutics, Inc., priority 2020, published 2023)
# Target: T1, TRAP1 enzyme (Homo sapiens, UniProt Q12931)
# T1 sequence (Q12931 60-704): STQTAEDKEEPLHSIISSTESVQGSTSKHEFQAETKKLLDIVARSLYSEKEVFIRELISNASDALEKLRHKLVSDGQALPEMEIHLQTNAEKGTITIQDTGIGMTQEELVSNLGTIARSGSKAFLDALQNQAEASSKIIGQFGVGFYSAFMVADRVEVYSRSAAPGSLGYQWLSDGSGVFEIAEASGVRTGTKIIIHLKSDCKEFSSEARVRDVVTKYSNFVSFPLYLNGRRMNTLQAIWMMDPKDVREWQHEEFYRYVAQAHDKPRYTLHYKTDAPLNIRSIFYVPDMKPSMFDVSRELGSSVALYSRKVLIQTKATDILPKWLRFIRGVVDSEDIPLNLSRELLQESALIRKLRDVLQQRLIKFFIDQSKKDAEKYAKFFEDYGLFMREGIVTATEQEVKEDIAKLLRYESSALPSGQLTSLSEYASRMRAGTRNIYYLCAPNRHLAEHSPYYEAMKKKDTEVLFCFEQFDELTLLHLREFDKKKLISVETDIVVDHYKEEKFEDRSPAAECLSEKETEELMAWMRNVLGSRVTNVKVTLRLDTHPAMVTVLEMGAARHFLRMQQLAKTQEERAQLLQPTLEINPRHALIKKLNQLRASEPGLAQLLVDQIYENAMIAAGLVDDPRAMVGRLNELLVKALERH
# Assay: Malachite green phosphate assay of TRAP1 ATPase activity
# Type: biochemical
# Settings: for EC50: TRAP1 ATPase activation, 150 nM Trap1, 20 μM ATP, geometric mean, read-out: Malachite Green Fluor DRC: GeoMean EC50; for Emax: read-out: Malachite Green Fluor DRC: Mean Emax
# Procedure, shortened: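 Compound (0.78 μM-100 μM) preincubated with 150 nM TRAP1 in 50 mM HEPES pH 7.5, 20 mM KCl, 4 mM MgCl2, 0.05% BSA, 30 min at 37 °C; reaction started with 20 μM ATP, 180 min at 37 °C. Phosphate quantified by malachite green against a standard curve; Emax and EC50 from sigmoidal fits of activation.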
structure (smiles),measurement,value
COc1ccc(NC(=O)c2cnc(C(F)(F)F)[nH]2)cc1S(=O)(=O)N(CCCCCN1CCOCC1)c1ccc(Br)cc1 [Compound 433],EC50,10 to 20 µM
same,Emax,123 to 159%
CCc1ccc(NC(=O)c2cnc(-c3ccccc3)[nH]2)cc1S(=O)(=O)Nc1ccc(Br)cc1 [Compound 170],EC50,< 10 µM
same,Emax,160 to 199%
O=C(Nc1cccc(S(=O)(=O)N2CCOc3cc(Cl)ccc32)c1)c1ncc(-c2ccccc2)o1 [Compound 477],EC50,< 10 µM
same,Emax,160 to 199%
CCOC(=O)CCCCCN(c1ccc(Br)cc1)S(=O)(=O)c1cc(NC(=O)c2cnc(C(F)(F)F)[nH]2)ccc1OC [Compound 263],EC50,10 to 20 µM
same,Emax,160 to 199%
Cc1ncoc1C(=O)Nc1cccc(S(=O)(=O)N(c2ccc(Cl)cc2)C(C)C)c1 [Compound 551],EC50,10 to 20 µM
same,Emax,160 to 199%
COc1ccc(NC(=O)c2cnc(-c3ccccc3)[nH]2)cc1S(=O)(=O)Nc1ccccc1C [Compound 201],EC50,10 to 20 µM
same,Emax,160 to 199%
COc1ccc(NC(=O)c2ncc(-c3ccccc3)o2)cc1S(=O)(=O)Nc1c(Cl)cccc1Cl [Compound 451],EC50,< 10 µM
same,Emax,123 to 159%
CC(C)c1ccc(NC(=O)c2ncc(-c3ccccc3)o2)cc1S(=O)(=O)Nc1ccc(Cl)cc1 [Compound 580],EC50,< 10 µM
same,Emax,123 to 159%
COc1ccc(NC(=O)c2cnccc2C(C)C)cc1S(=O)(=O)Nc1ccc(Br)cc1 [Compound 493],EC50,20 to 100 µM
same,Emax,160 to 199%
COc1ccc(NC(=O)c2cnc(-c3ccccc3)[nH]2)cc1S(=O)(=O)N1Cc2ccc(F)cc2C1 [Compound 200],EC50,< 10 µM
same,Emax,160 to 199%
COc1ccc(NC(=O)c2cnc(-c3ccccc3)o2)cc1S(=O)(=O)Nc1ccc(Br)cc1 [Compound 185],EC50,10 to 20 µM
same,Emax,160 to 199%
CC(=O)c1c(C)[nH]c(C(=O)Nc2cccc(S(=O)(=O)N3CCCC3)c2)c1C [Compound 148],EC50,10 to 20 µM
same,Emax,200 to 300%
COc1ccc(NC(=O)c2nccs2)cc1S(=O)(=O)Nc1ccc(Cl)cc1 [Compound 349],EC50,20 to 100 µM
same,Emax,200 to 300%
COc1ccc(NC(=O)c2cnc(-c3ccccc3)[nH]2)cc1S(=O)(=O)Nc1ccc(F)cc1 [Compound 171],EC50,< 10 µM
same,Emax,200 to 300%
COc1ccc(NC(=O)c2nnc(-c3ccccc3)o2)cc1S(=O)(=O)Nc1ccc(Cl)cc1 [Compound 424],EC50,< 10 µM
same,Emax,123 to 159%
"NCCCCCCOc1ccc(NC(=O)c2cnc[nH]2)cc1S(=O)(=O)Nc1ccc(Br)cc1 [Compound 356, N-(4-((6-aminohexyl)oxy)-3-(N-(4-bromophenyl)sulfamoyl)phenyl)-1H-imidazole-4-carboxamide]",EC50,20 to 100 µM
same,Emax,200 to 300%
COc1ccc(NC(=O)c2ccc(-c3ccccc3)o2)cc1S(=O)(=O)Nc1ccc(Cl)cc1 [Compound 499],EC50,20 to 100 µM
same,Emax,160 to 199%
COc1ccc(NC(=O)c2ccccc2C(F)(F)F)cc1S(=O)(=O)N1CCCCC1 [Compound 41],EC50,10 to 20 µM
same,Emax,160 to 199%
Cc1ncoc1C(=O)Nc1cccc(S(=O)(=O)N2CCC(C)(C)c3cc(Cl)ccc32)c1 [Compound 517],EC50,10 to 20 µM
same,Emax,160 to 199%
COc1ccc(NC(=O)c2cc3sccc3s2)cc1S(=O)(=O)Nc1c(C)cccc1C [Compound 1051],EC50,< 10 µM
same,Emax,160 to 199%
Cc1ccc(NS(=O)(=O)c2cccc(NC(=O)c3cnc(C(F)(F)F)[nH]3)c2)cc1 [Compound 271],EC50,10 to 20 µM
same,Emax,160 to 199%
Cc1ccc2c(c1)OCCN2S(=O)(=O)c1cccc(NC(=O)c2ncco2)c1 [Compound 324],EC50,20 to 100 µM
same,Emax,200 to 300%
"COc1ccc(NC(=O)c2cnc[nH]2)cc1S(=O)(=O)N(CCCCCCO)c1ccc(Br)cc1 [Compound 246, N-(3-(N-(4-bromophenyl)-N-(6-hydroxyhexyl)sulfamoyl)-4-methoxyphenyl)-1H-imidazole-5-carboxamide]",EC50,20 to 100 µM
same,Emax,200 to 300%
COc1ccc(NC(=O)c2cnc[nH]2)cc1S(=O)(=O)N(CCOCCOCC[P+](c1ccccc1)(c1ccccc1)c1ccccc1)c1ccc(Br)cc1 [Compound 296],EC50,< 10 µM
same,Emax,200 to 300%
COc1ccc(NC(=O)c2cnc(C(F)(F)F)[nH]2)cc1S(=O)(=O)Nc1cccc(C(C)(C)C)c1 [Compound 368],EC50,20 to 100 µM
same,Emax,200 to 300%
CCOC(=O)Cc1ccc(NC(=O)c2ncc(-c3ccccc3)o2)cc1S(=O)(=O)Nc1ccc(Cl)cc1 [Compound 558],EC50,10 to 20 µM
same,Emax,160 to 199%
"COc1ccc(NC(=S)c2ncco2)cc1S(=O)(=O)Nc1ccc(Cl)cc1 [Compound 598, N-(3-(N-(4-chlorophenyl)sulfamoyl)-4-methoxyphenyl) oxazole-2-carbothioamide]",EC50,20 to 100 µM
same,Emax,200 to 300%
CCc1ccc(NC(=O)c2nnc(-c3ccccc3)[nH]2)cc1S(=O)(=O)Nc1ccc(Cl)cc1 [Compound 595],EC50,10 to 20 µM
same,Emax,200 to 300%
COc1ccc(NC(=O)c2cnc(C(F)(F)F)[nH]2)cc1S(=O)(=O)N(CCCCCN1CCCC1)c1ccc(Br)cc1 [Compound 439],EC50,20 to 100 µM
same,Emax,160 to 199%
O=C(Nc1ccc(F)c(S(=O)(=O)Nc2ccc(F)cc2)c1)c1cnc(C(F)(F)F)[nH]1 [Compound 220],EC50,10 to 20 µM
same,Emax,160 to 199%
COc1ccc(NC(=O)c2ncco2)cc1S(=O)(=O)N(CCCCCC[P+](c1ccccc1)(c1ccccc1)c1ccccc1)c1ccc(Br)cc1 [Compound 259],EC50,< 10 µM
same,Emax,> 300%
CN(c1ccc(Br)cc1)S(=O)(=O)c1cc(NC(=O)c2cnc[nH]2)ccc1OCCCCCC[P+](c1ccccc1)(c1ccccc1)c1ccccc1 [Compound 363],EC50,< 10 µM
same,Emax,> 300%
O=C(O)/C=C/c1ccc(NC(=O)c2ncc(-c3ccccc3)o2)cc1S(=O)(=O)Nc1ccc(Cl)cc1 [Compound 648],EC50,< 10 µM
same,Emax,160 to 199%
"COc1ccc(NC(=O)c2cnc(-c3ccccc3)[nH]2)cc1S(=O)(=O)N(CCCCCC(=O)O)c1ccc(Br)cc1 [Compound 243, 6-((N-(4-bromophenyl)-2-methoxy-5-(2-phenyl-1H-imidazole-5-carboxamido)phenyl)sulfonamido) hexanoic acid]",EC50,10 to 20 µM
same,Emax,> 300%
COc1ccc(NC(=O)c2csc(-c3ccccc3)n2)cc1S(=O)(=O)Nc1ccc(Cl)cc1 [Compound 487],EC50,10 to 20 µM
same,Emax,160 to 199%
O=C(Nc1ccc(F)c(S(=O)(=O)Nc2ccc(Br)cc2)c1)c1cnc(-c2ccccc2)[nH]1 [Compound 168],EC50,10 to 20 µM
same,Emax,200 to 300%
COc1ccc(NC(=O)c2ncc(-c3ccccc3)o2)cc1S(=O)(=O)Nc1ccc(Cl)cc1 [Compound 369],EC50,< 10 µM
same,Emax,160 to 199%
COc1ccc(NC(=O)c2cnc(C(F)(F)F)[nH]2)cc1S(=O)(=O)Nc1ccc(-c2ccccc2)cc1 [Compound 353],EC50,20 to 100 µM
same,Emax,200 to 300%
O=C(Nc1ccc(F)c(S(=O)(=O)Nc2c(F)cc(Cl)cc2F)c1)c1ncc(-c2ccccc2)o1 [Compound 503],EC50,< 10 µM
same,Emax,123 to 159%
O=C(Nc1ccc(F)c(S(=O)(=O)Nc2ccc(Cl)cc2)c1)c1cc(Cl)ncc1C(F)(F)F [Compound 743],EC50,20 to 100 µM
same,Emax,200 to 300%
O=C(Nc1cccc(S(=O)(=O)N2CCOc3cc(Cl)ccc32)c1)c1ncco1 [Compound 367],EC50,20 to 100 µM
same,Emax,200 to 300%
COc1ccc(NC(=O)c2cnc(-c3ccccc3)[nH]2)cc1S(=O)(=O)N(CCCCCCO)c1ccc(Br)cc1 [Compound 253],EC50,10 to 20 µM
same,Emax,160 to 199%
COc1ccc(NC(=O)c2nnc(-c3ccccc3)o2)cc1S(=O)(=O)Nc1c(Cl)cccc1Cl [Compound 469],EC50,< 10 µM
same,Emax,160 to 199%
